Reference: patent US20110214196A1, “DEVELOPMENT OF HERBICIDE-RESISTANT GRASS SPECIES” (University of Georgia Research Foundation, priority 2008, published 2011)

Tests used:
Assay in all cases: Whole plant greenhouse dose-response, Segment herbicide (Example 8)
Format in all cases: in vivo, seashore paspalum (Paspalum vaginatum)
[1] = test system: Mauna Kea line regenerated from tissue culture (TC)
Method: (§1) Sethoxydim-resistant plants regenerated from a sethoxydim-resistant cell line, Line A, were tested for resistance at the whole plant level in a dose-response experiment conducted in a greenhouse. In this experiment, Line A was compared to two herbicide-susceptible controls; the original parent line, Mauna Kea (PT); and a Mauna Kea line regenerated from tissue culture (TTC). Plants were transplanted to Cone-tainers™ measuring 4×14 cm and tapering to 1 cm (Stuewe and Sons Inc., Corvallis, Oreg.) containing a 1:1 mix of Fafard® 3B mix and sand and placed on benches under sodium lights in a greenhouse with a 16 hour photoperiod maintained at 27/32° C. day/night for two weeks prior to treatment applications. Each of the three genotypes, Line A, PT and TC were treated with 0, 50, 100, 200, 400, 800, 1600, and 3200 g ai ha^−1 rates of sethoxydim using Segment™ herbicide (BASF Corp., Florham Park, N.J.). All herbicide rates were applied at a spray volume of 1871 ha^−1 in an experimental spray chamber, and after drying, returned to the greenhouse bench and maintained under the conditions described above. Visual estimates of crop injury were recorded at 7, 14, 21, and 28 days after treatment (DAT) using a scale of 0 to 100, where 0 equals no injury and 100 equals complete death. At 42 days after treatment, the above ground portion of all plants was harvested, dried for 48 hours at a temperature of 50° C., and weighed to determine plant dry weight. Treatments were arranged in a randomized complete block design. Only two replications of TCC were possible due to limited plant materials; otherwise four replications were used for the other two genotypes (PT and Line A). Data were first analyzed using a two-way analysis of variance and subsequently analyzed within herbicide rate. Differences among genotype means at each herbicide rate were determined using Fisher's Least Significant Difference (LSD).

[2] = test system: sethoxydim-resistant Line A
Method: as §1

[3] = test system: original parent line, Mauna Kea (PT)
Method: as §1

[4] = at rates equal to or greater than 800 g ai ha^−1
[5] = at rates of 200 g ai ha^−1, scale of 0 to 100

CCC/C(=N\OCC)C1=C(O)CC(CC(C)SCC)CC1=O (centres unmarked) [sethoxydim, 2-[1-(ethoxyimino)-butyl]-5-[2-(ethylthio)propyl]-3-hydroxy-2-cylohexen-1-one]
LD50 [1]: 276 g ai ha^1 | Plant Injury ([1]; 50 g a.i. ha^−1, 7 DAT): 4.5a % | Plant Injury ([1]; 50 g a.i. ha^−1, 14 DAT): 12.5ab % | Plant Injury ([1]; 50 g a.i. ha^−1, 21 DAT): 2.5a % | Plant Injury ([1]; 50 g a.i. ha^−1, 28 DAT): 0.0a % | Dry Weight ([1]; 50 g a.i. ha^−1, 42 DAT): 2.2a grams | Plant Injury ([1]; 100 g a.i. ha^−1, 7 DAT): 18.3b % | Plant Injury ([1]; 100 g a.i. ha^−1, 14 DAT): 25.0b % | Plant Injury ([1]; 100 g a.i. ha^−1, 21 DAT): 20.0a % | Plant Injury ([1]; 100 g a.i. ha^−1, 28 DAT): 7.5a % | Dry Weight ([1]; 100 g a.i. ha^−1, 42 DAT): 1.6ab grams | Plant Injury ([1]; 200 g a.i. ha^−1, 7 DAT): 16.7b % | Plant Injury ([1]; 200 g a.i. ha^−1, 14 DAT): 30.0b % | Plant Injury ([1]; 200 g a.i. ha^−1, 21 DAT): 40.0b % | Plant Injury ([1]; 200 g a.i. ha^−1, 28 DAT): 32.5b % | Dry Weight ([1]; 200 g a.i. ha^−1, 42 DAT): 0.4b grams | Plant Injury ([1]; 400 g a.i. ha^−1, 7 DAT): 30.8b % | Plant Injury ([1]; 400 g a.i. ha^−1, 14 DAT): 82.5b % | Plant Injury ([1]; 400 g a.i. ha^−1, 21 DAT): 80.0b % | Plant Injury ([1]; 400 g a.i. ha^−1, 28 DAT): 82.5b % | Dry Weight ([1]; 400 g a.i. ha^−1, 42 DAT): 0.1b grams | Plant Injury ([1]; 800 g a.i. ha^−1, 7 DAT): 60.0c % | Plant Injury ([1]; 800 g a.i. ha^−1, 14 DAT): 87.5b % | Plant Injury ([1]; 800 g a.i. ha^−1, 21 DAT): 95.0b % | Plant Injury ([1]; 800 g a.i. ha^−1, 28 DAT): 100.0c % | Dry Weight ([1]; 800 g a.i. ha^−1, 42 DAT): 0.1b grams | Plant Injury ([1]; 1600 g a.i. ha^−1, 7 DAT): 43.3b % | Plant Injury ([1]; 1600 g a.i. ha^−1, 14 DAT): 100.0c % | Plant Injury ([1]; 1600 g a.i. ha^−1, 21 DAT): 100.0c % | Plant Injury ([1]; 1600 g a.i. ha^−1, 28 DAT): 100.0b % | Dry Weight ([1]; 1600 g a.i. ha^−1, 42 DAT): 0.1b grams | Plant Injury ([1]; 3200 g a.i. ha^−1, 7 DAT): 46.7b % | Plant Injury ([1]; 3200 g a.i. ha^−1, 14 DAT): 100.0b % | Plant Injury ([1]; 3200 g a.i. ha^−1, 21 DAT): 100.0b % | Plant Injury ([1]; 3200 g a.i. ha^−1, 28 DAT): 100.0b % | Dry Weight ([1]; 3200 g a.i. ha^−1, 42 DAT): 0.1b grams | injury score [1, 4]: ≥ 80% | injury score [1, 5]: ≥ 30 | LD50 [2]: > 3200 g ai ha^1 | Plant Injury ([2]; 50 g a.i. ha^−1, 7 DAT): 2.9a % | Plant Injury ([2]; 50 g a.i. ha^−1, 14 DAT): 0.0b % | Plant Injury ([2]; 50 g a.i. ha^−1, 21 DAT): 1.2a % | Plant Injury ([2]; 50 g a.i. ha^−1, 28 DAT): 0.0a % | Dry Weight ([2]; 50 g a.i. ha^−1, 42 DAT): 1.7a grams | Plant Injury ([2]; 100 g a.i. ha^−1, 7 DAT): 0.8a % | Plant Injury ([2]; 100 g a.i. ha^−1, 14 DAT): 1.2a % | Plant Injury ([2]; 100 g a.i. ha^−1, 21 DAT): 3.8a % | Plant Injury ([2]; 100 g a.i. ha^−1, 28 DAT): 2.5a % | Dry Weight ([2]; 100 g a.i. ha^−1, 42 DAT): 2.0a grams | Plant Injury ([2]; 200 g a.i. ha^−1, 7 DAT): 1.7a % | Plant Injury ([2]; 200 g a.i. ha^−1, 14 DAT): 0.0a % | Plant Injury ([2]; 200 g a.i. ha^−1, 21 DAT): 0.0a % | Plant Injury ([2]; 200 g a.i. ha^−1, 28 DAT): 0.0a % | Dry Weight ([2]; 200 g a.i. ha^−1, 42 DAT): 1.9a grams | Plant Injury ([2]; 400 g a.i. ha^−1, 7 DAT): 3.8a % | Plant Injury ([2]; 400 g a.i. ha^−1, 14 DAT): 0.0a % | Plant Injury ([2]; 400 g a.i. ha^−1, 21 DAT): 2.5a % | Plant Injury ([2]; 400 g a.i. ha^−1, 28 DAT): 0.0a % | Dry Weight ([2]; 400 g a.i. ha^−1, 42 DAT): 2.0a grams | Plant Injury ([2]; 800 g a.i. ha^−1, 7 DAT): 1.2a % | Plant Injury ([2]; 800 g a.i. ha^−1, 14 DAT): 1.2a % | Plant Injury ([2]; 800 g a.i. ha^−1, 21 DAT): 3.8a % | Plant Injury ([2]; 800 g a.i. ha^−1, 28 DAT): 1.2a % | Dry Weight ([2]; 800 g a.i. ha^−1, 42 DAT): 2.0a grams | Plant Injury ([2]; 1600 g a.i. ha^−1, 7 DAT): 4.3a % | Plant Injury ([2]; 1600 g a.i. ha^−1, 14 DAT): 0.0a % | Plant Injury ([2]; 1600 g a.i. ha^−1, 21 DAT): 3.8a % | Plant Injury ([2]; 1600 g a.i. ha^−1, 28 DAT): 1.2a % | Dry Weight ([2]; 1600 g a.i. ha^−1, 42 DAT): 1.5a grams | Plant Injury ([2]; 3200 g a.i. ha^−1, 7 DAT): 8.3a % | Plant Injury ([2]; 3200 g a.i. ha^−1, 14 DAT): 7.5a % | Plant Injury ([2]; 3200 g a.i. ha^−1, 21 DAT): 5.5a % | Plant Injury ([2]; 3200 g a.i. ha^−1, 28 DAT): 4.2b % | Dry Weight ([2]; 3200 g a.i. ha^−1, 42 DAT): 1.6a grams | maximum injury score observed ([2]; at 3200 g ai ha^−1): 7.5% | LD50 [3]: 189 g ai ha^1 | Plant Injury ([3]; 50 g a.i. ha^−1, 7 DAT): 5.2a % | Plant Injury ([3]; 50 g a.i. ha^−1, 14 DAT): 6.2b % | Plant Injury ([3]; 50 g a.i. ha^−1, 21 DAT): 5.0a % | Plant Injury ([3]; 50 g a.i. ha^−1, 28 DAT): 1.2a % | Dry Weight ([3]; 50 g a.i. ha^−1, 42 DAT): 1.6a grams | Plant Injury ([3]; 100 g a.i. ha^−1, 7 DAT): 7.9b % | Plant Injury ([3]; 100 g a.i. ha^−1, 14 DAT): 22.5b % | Plant Injury ([3]; 100 g a.i. ha^−1, 21 DAT): 13.8a % | Plant Injury ([3]; 100 g a.i. ha^−1, 28 DAT): 6.2a % | Dry Weight ([3]; 100 g a.i. ha^−1, 42 DAT): 1.3b grams | Plant Injury ([3]; 200 g a.i. ha^−1, 7 DAT): 20.8b % | Plant Injury ([3]; 200 g a.i. ha^−1, 14 DAT): 55.0b % | Plant Injury ([3]; 200 g a.i. ha^−1, 21 DAT): 52.5b % | Plant Injury ([3]; 200 g a.i. ha^−1, 28 DAT): 43.8b % | Dry Weight ([3]; 200 g a.i. ha^−1, 42 DAT): 0.8b grams | Plant Injury ([3]; 400 g a.i. ha^−1, 7 DAT): 30.8b % | Plant Injury ([3]; 400 g a.i. ha^−1, 14 DAT): 67.5b % | Plant Injury ([3]; 400 g a.i. ha^−1, 21 DAT): 67.5b % | Plant Injury ([3]; 400 g a.i. ha^−1, 28 DAT): 72.5b % | Dry Weight ([3]; 400 g a.i. ha^−1, 42 DAT): 0.2b grams | Plant Injury ([3]; 800 g a.i. ha^−1, 7 DAT): 35.0b % | Plant Injury ([3]; 800 g a.i. ha^−1, 14 DAT): 85.0b % | Plant Injury ([3]; 800 g a.i. ha^−1, 21 DAT): 85.0b % | Plant Injury ([3]; 800 g a.i. ha^−1, 28 DAT): 88.8b % | Dry Weight ([3]; 800 g a.i. ha^−1, 42 DAT): 0.3b grams | Plant Injury ([3]; 1600 g a.i. ha^−1, 7 DAT): 40.8b % | Plant Injury ([3]; 1600 g a.i. ha^−1, 14 DAT): 90.0b % | Plant Injury ([3]; 1600 g a.i. ha^−1, 21 DAT): 92.5b % | Plant Injury ([3]; 1600 g a.i. ha^−1, 28 DAT): 92.5b % | Dry Weight ([3]; 1600 g a.i. ha^−1, 42 DAT): 0.2b grams | Plant Injury ([3]; 3200 g a.i. ha^−1, 7 DAT): 37.9b % | Plant Injury ([3]; 3200 g a.i. ha^−1, 14 DAT): 100.0b % | Plant Injury ([3]; 3200 g a.i. ha^−1, 21 DAT): 100.0b % | Plant Injury ([3]; 3200 g a.i. ha^−1, 28 DAT): 100.0b % | Dry Weight ([3]; 3200 g a.i. ha^−1, 42 DAT): 0.1b grams | injury score [3, 4]: ≥ 80% | injury score [3, 5]: ≥ 30
